Experimental data as given in patent US20240317826A1, “COMPOSITIONS AND METHODS FOR TREATING AND/OR I[…] AGENT FOR TREATING HIV-1 INFECTIONS” (priority 2021, published 2024).
“Also recorded” adds a separate entry of the source. Read-outs that look alike come from different tables or passages of the source.

Legend:
[1] = molecular target: T1, IN/INI1 complex (Human immunodeficiency virus type 1 group M subtype B, UniProt P04585); assay: co-IP in 293T cells: HA-INI1 bound to YFP-IN; format: cell-based, HIV-1
T1 construct: expressed in transfected cells; host or cells: 293T cells
Source text: Panels d-g show the input RNA and protein levels within transfected cells: the RT-PCR analysis of input TAR RNA levels (panel d); Immunoblot analysis of input HA-INI1 (panel e); input YFP-IN (panel f); and GAPDH level for loading control (panel g). Lane 1 is RNA-co-IP using isotype IgG control antibodies and lanes 2-7 are RNA-co-IP using anti-GFP antibodies to pull down IN. There is ˜1000 fold inhibition of RNA and INI1 binding to IN in the presence of SP-38 peptide (compare lane 6 to lane 5).
To determine if stapled peptides can inhibit interaction of IN with TAR RNA in cells, we carried out RNA-co-IP experiments (FIG. 8e). YFP-IN and TAR RNA were expressed by co-transfecting plasmids pYFP-fN, pLTIR-luc and pTat in 293T cells. Cells were treated with SP-38 or SP-83 (D225G mutant) peptides. After transfection, the cell lysates were treated with DNaseI and subjected to immunoprecipitation (IP) using α-GFP antibodies to pull down YFP-IN and associated complexes. RNA was separated from the immune complexes and subjected to RT-PCR to detect bound TAR RNA (FIG. 8e, panel a). Immunoblot analysis of bound proteins were carried out using: α-HA to detect bound HA-INI1 (FIG. 8e, panel b) and α-GFP to detect YFP-IN (FIG. 8e, panel c). RT-PCR of the RNA isolated from cell lysate was used as input control (FIG. 8e, panel d). Immunoblot analysis of total proteins from cell lysates as input control were carried out using α-HA to detect input HA-INI1 (FIG. 8e, panel e), α-GFP to detect input YFP-IN (FIG. 8e, panel f), and α-GAPDH to detect GAPDH as loading control (FIG. 8e, panel g). […] Expression of both GFP-IN and TAR RNA in the cells led to successful RNA-co-IP by α-GFP antibodies (FIG. 8e, lane 5).

[2] = molecular target: T2, IN-INI1 interaction (Human immunodeficiency virus type 1 group M subtype B, UniProt P04585); assay: Alpha interaction assay: effect of stapled peptides on IN-INI1 interaction; format: binding, HIV-1; details: in vitro
T2 construct: made in house; host or cells: bacteria (E. coli inferred from the pGEX vector)
Experimental: (§1) FIG. 8A-FIG. 8D show quantitative alpha interaction assay to determine the effect of stapled peptides on the interaction of IN and IN-CTD with INI1 and INI1183-304 or TAR RNA. […] Fixed concentrations of GST-IN, 6His-INI1, and TAR RNA were incubated with increasing concentration of stapled peptides and the interaction was detected as Alpha Score. The IC50 values were determined by fitting the data to a four-parameter dose-response curve using Graph Pad prism. All the graphs represent the average of three independent experiments (Mean+/−SEM).
(§2) AlphaScreen proximity assay to detect the protein-protein and protein-RNA interactions. AlphaScreen assay was carried out using PerkinElmer Alpha-Lisa-6His Acceptor beads (Catalogue #AL128C), Alpha-Screen-GST donor beads (Catalogue #6765300), GST-tagged and His-tagged proteins for protein-protein interactions; and Alpha-Screen Streptavidin donor beads (Catalogue #6760002 S), Alpha-Lisa-GST acceptor beads (Catalogue #AL110C), Biotin-labeled RNA and GST-tagged proteins for protein-RNA interactions. The reaction was carried out according to the manufacturer's protocol in a reaction buffer contacting (25 mM HEPES pH 7.4, 100 mM NaCl (or 500 mM NaCl), 1 mM DTT, 1 mM MgCl2 and BSA 1 mg ml/ml). The mixture of proteins or protein and RNA were incubated for 1 hr at room temperate with shaking in a multi micro-plate shaker and then 20 ag ml/ml accepter beads were added and incubated for additional 1 h with shaking. Finally, 20 ag ml^−1 of donor beads were added and further incubated for 1 hr. The Alpha score readings were measured using Alpha-compatible Envision 2105 multi-plate reader (Perkin-Elmer). All the experiments related to this method were carried out 3 to 5 times and data were analyzed by using Graph Pad Prism 9 version 9.0.0 (GraphPad Software, CA). The RNA sequences used in this assay are listed in the Table 6d and were obtained from Integrated DNA technology.
(§3) These peptides were tested for their ability to disrupt the interaction between IN-INI1 and IN-TAR RNA in vitro.

[3] = molecular target: T3, IN-TAR RNA interaction (Human immunodeficiency virus type 1 group M subtype B, UniProt P04585); assay: Alpha interaction assay: effect of stapled peptides on IN-TAR RNA interaction; format: binding, HIV-1; details: in vitro
T3 construct: made in house; host or cells: bacteria (E. coli inferred from the pGEX vector)
Experimental: as §1, §2, §3

[4] = tested on: HIV-1 virions; assay: Infectivity in CEM-GFP cells of virions produced in the presence of stapled peptides; format: cell-based; details: virions from 293T cells, 5 ng p24, infection of CEM-GFP cells in the absence of stapled peptides; GFP and p24
Experimental: FIG. 11A and FIG. 11B show infectivity of virions in CEM GFP cells produced in 293T cells that were treated with various stapled peptide (at 5 μM concentration) or DMSO. Equal amounts of virions treated with stapled peptides were used to infect CEM-GFP cells and the infected cells were imaged on days 1, 3, 6, 9 and 12 (FIG. 11A) and subjected to p24 ALphaLisa (FIG. 11B). FIG. 11C and FIG. 11D show Infectivity of the virions produced in the presence of increasing concentrations of stapled peptide during production in 293T cells. The 293T cells transfected with pNL4-3 were treated with increasing concentrations of stapled peptides and equal amount of virions from these cells were used to infect CEM-GFP cells. The infected cells were imaged on day 6 (FIG. 11C) and subjected to p24 ALphaLisa (FIG. 11D).
To determine the infectivity of virions produced in the presence of DMSO (DMSO-V), SP-38 (SP38-V), SP-80 (SP80-V) and SP83-D225G (SP83-V), we used equal amounts (5 ng p24) of virions to infect CEM-GFP cells in the absence of stapled peptides (FIGS. 11a and c). […] Replication of the virus was monitored by GFP expression in […] and also by assaying for the production of p24 in the culture supernatants (FIGS. 11a-d).

[5] = tested on: HIV-1 virion morphogenesis; assay: TEM analysis of morphology of virions produced in the presence of stapled peptides; format: cell-based; details: ~200 virions each
Source text: FIG. 12A-FIG. 12C show effects of stapled peptides on virion morphogenesis and incorporation of INI1. […] The middle panel is the expanded version and the lower panel represents the carton of the two viral particles from the middle panel. Note the empty capsid shell and eccentric electron dense material, typical of morphologically defective virions. […] About 200 virions each were scored to quantify four different types of morphological forms—Conical (Co), Eccentric (Ec), Immature (Im) and Unclear (Uc).
To determine if the virions produced in the presence of stapled peptides have similar defect in virion morphogenesis, we carried out TEM analysis of the virions (˜200 each).

Question: Which “inhibition of IN/INI1 complex formation within cells” value [1] does the source give for “lys-Leu-Met-Thr-Pro-Glu-Met-Phe-S5-Glu-Ile-Leu-S5-Cys-Gly-Leu-Asn [SP83]” here?
Answer: Its value is “not”.

Question: And the “inhibition of IN/INI1 complex formation within cells” value ([1]; listed as SP83 (D225G))?
Answer: The value was “does not inhibit”.

Question: And the “inhibition of IN-INI1 interactions” value [2]?
Answer: The value was “not”.

Question: And the “inhibition of IN-TAR RNA interactions” value [3]?
Answer: Its value is “not”.

Question: Which “inhibition of IN/INI1 complex formation within cells” value [1] does the source give for “lys-Leu-Met-Thr-Pro-Glu-Met-Phe-S5-Glu-Ile-Leu-S5-Cys-Asp-Leu-Asn [SP38]” here?
Answer: Its value is “potently inhibits”.

Question: What about the “inhibition of INI1 binding to IN” value ([1]; immunoblot of bound HA-INI1) of the same substance?
Answer: The value was ~1000 fold.

Question: And the “IC50, inhibition of IN-INI1 interactions” value [2]?
Answer: Its value is “low nanomolar”.

Question: And the “infectivity of virions produced in the presence of peptide” value [4]?
Answer: Its value is “defective for infection; also recorded: produced non-infection virions”.

Question: What about the virion particle morphology [5] of the same substance?
Answer: Its virion particle morphology is “large number of morphologically defective “eccentric” particles and very few conical capsids; also recorded: increased proportion of eccentric virions”.

Question: And the “IC50, inhibition of IN-TAR RNA interactions” value [3]?
Answer: Its value is “low nanomolar”.
